Data published in US10189865B1, “Gold(I) complexes, pharmaceutical compositions thereof, and methods of treating proliferative disorders” (King Fahd University of Petroleum and Minerals, priority 2018, dated 2019).

Legend:
Assay type in all cases: cell-based
[1] = system: HCT15 (human colon cancer) cell line; test: MTT in vitro cytotoxicity assay, HCT15; details: 24 h incubation with complex, three independent experiments, read-out: IC50 against HCT15
Method: (§1) The cells were seeded at 3×10^3 cells/well in 100 μL of Dulbecco's Modified Eagle's Medium (DMEM) containing 10% fetal bovine serum (FBS) in a 96-well tissue culture plate and incubated for 72 h at 37° C., 5% CO2 and 90% relative humidity in a CO2 incubator. After incubation, 100 μL of 100, 50, 25 and 12.5 μM solutions of cisplatin and gold(I) complexes prepared in Dulbecco's Modified Eagle's Medium (DMEM) was each added to the cells and the cultures were incubated for 24 h. The medium in the wells was casted off, and 100 μL of DMEM containing MTT (0.5 mg/mL) was added to the wells, which were subsequently incubated in the CO2 incubator at 37° C. in the dark for 4 h. After incubation, purple-colored formazan produced by the cells appeared as dark crystals in the bottom of the wells. The culture medium was carefully removed from each well to prevent disruption of the monolayer, and 100 μL of dimethyl sulfoxide (DMSO) was added in each well. The solution in the wells was thoroughly mixed to dissolve the formazan crystals which produced a purple solution. The absorbance of the 96 well-plates was measured at 570 nm with Labsystems Multiskan EX ELISA reader against a reagent blank. The experimental results were calculated as micro-molar concentration for 50% cell growth inhibition (IC50) of each drug. The MTT assay was carried out in three independent experiments, each in triplicate. […]

[2] = system: MCF7 (human breast adenocarcinoma) cell line; test: MTT in vitro cytotoxicity assay, MCF7; details: 24 h incubation with complex, three independent experiments, read-out: IC50 against MCF7
Method: as §1

[3] = system: A549 (human lung carcinoma) cell line; test: MTT in vitro cytotoxicity assay, A549; details: 24 h incubation with complex, three independent experiments, read-out: IC50 against A549
Method: as §1

| Compound | IC50 [1] | IC50 [2] | IC50 [3] |
| --- | --- | --- | --- |
| N.N.[Cl][Pt][Cl] [Cisplatin, cisplatin, reference compound] | 33 ± 2 µM |  |  |
| [Au(IPr)(ImSe]PF6 [Complex (II)] | 33 ± 1 µM | 43 ± 2 µM | 47 ± 1 µM |
